The values that follow are results of earlier work, collected in the CATMoS acute toxicity set (Mansouri et al. 2021).

Several values for one entry are separate records, joined by “and”; a condition that tells them apart may be missing. Equal entries are not always repeated.

In general, LD50 refers to the dose expected to kill half of the subjects tested.

The data set can be described thus: rat acute oral toxicity. Conditions: in vivo.
Consider `N#CCON=C(C#N)c1ccccc1`, for which the LD50 was 2280 mg/kg. With `CS(=O)(=O)OC(CCN1CCCCC1)(c1ccccc1)c1ccccc1`, the LD50 was 1240 mg/kg. For the compound `FC(F)(F)CO[C@@H]1CC[C@@](Cn2cncn2)(c2ccc(Cl)cc2Cl)O1`, the LD50 is 450 mg/kg. On to `CCCC(=O)c1ccc(N)cc1`, for which the LD50 was 84 mg/kg. As for `Cc1cc(O)c(C(C)(C)C)cc1Sc1cc(C(C)(C)C)c(O)cc1C`, the median lethal dose (LD50) is 2340 mg/kg.

Turning to `COc1cc2c(cc1OC)C(CCc1ccc(Cl)cc1)N(C)CC2` (centres undefined), the median lethal dose (LD50) was 400 mg/kg.

For the compound `OC(CNCCNCC(O)COc1ccccc1)COc1ccccc1` (centres undefined), the LD50 was 2920 mg/kg. As to `Nc1cc(-c2ccncc2)c[nH]c1=O`, the 50% lethal dose (LD50) was 102 mg/kg. As to `O=C(CCCCC(=O)OC1CCCCC1)OC1CCCCC1`, the LD50 was 16000 mg/kg. On to `CC(F)(F)C(F)(F)C(F)(F)C(O)(F)F`, for which the LD50 was 1110 mg/kg. With `CC(=O)OC(C)OC(=O)C(C)c1ccc(-c2ccccc2)c(F)c1` (centres undefined), the LD50 was 66 mg/kg. For the compound `CCOC(=O)C1CCCCC1`, the median lethal dose (LD50) was 3960 mg/kg. Consider `CNC(=S)NCCSCc1nc[nH]c1C`, for which the LD50 was 1490 mg/kg. With `O=c1nn[nH]c2ccccc12`, the LD50 was 595 mg/kg. Turning to `Cc1nn(-c2ccccc2)c(=O)c2noc(C)c12`, the LD50 is 1000 mg/kg. Turning to `Nc1nc(N)c2nc(-c3ccccc3)c(N)nc2n1`, the 50% lethal dose (LD50) is 400 mg/kg. For the compound `CCC1(CC)C(=O)NCC(C)C1=O` (centres undefined), the LD50 was 860 mg/kg.

With `CC(COc1ccc(Cl)cc1Cl)C(=O)O` (centres undefined), the LD50 is 800 mg/kg. Turning to `O=C(Cc1ccccc1)NNCc1ccccc1`, the 50% lethal dose (LD50) is 2500 mg/kg. For the compound `CC(=O)[C@H]1CC[C@H]2[C@@H]3CC[C@H]4C[C@H](O)CC[C@]4(C)[C@H]3C(=O)C[C@]12C`, the LD50 was 297 mg/kg.

For `CCCCCCCCCCCCCCCCCC(=O)Cl`, the LD50 is 7500 mg/kg.

In the case of `O=C(O)CC(O)c1ccc(-c2ccc(Cl)cc2)o1` (centres undefined), the LD50 is 2460 mg/kg.

Take `CCCC[P+](CCCC)(CCCC)CCCC`: the LD50 was 916 mg/kg and 420 mg/kg.

For `CCCCOC(=O)CC(SP(=O)(OC)OC)C(=O)OCCCC` (centres undefined), the LD50 was 515 mg/kg. Take `Cc1cc(C(C)(C)C)cc(C)c1CC1=NCCN1`: the LD50 was 230 mg/kg.

For `O=C[C@H](O)[C@@H](O)[C@H](O)[C@H](O)CO`, the median lethal dose (LD50) was 25800 mg/kg. As for `CC12CCC3(CCCC(C)(C)C3C1)OC2=O` (centres undefined), the LD50 is 1600 mg/kg.

Regarding `CC(=O)C(N=Nc1cc(Cl)c(-c2cc(Cl)c(N=NC(C(C)=O)C(=O)Nc3ccc(C)cc3C)cc2Cl)cc1Cl)C(=O)Nc1ccc(C)cc1C` (centres undefined), the 50% lethal dose (LD50) is 2230 mg/kg. For the compound `CC(C)[C@@]1(NC(=O)[C@@H]2C[C@@H]3c4cccc5[nH]cc(c45)C[C@H]3N(C)C2)O[C@@]2(O)[C@@H]3CCCN3C(=O)[C@H](Cc3ccccc3)N2C1=O`, the LD50 is 2640 mg/kg. As for `O=C1CCc2cc(C(=O)CCN3CCC(Cc4ccccc4)CC3)ccc2N1`, the median lethal dose (LD50) is 500 mg/kg. In the case of `C=CC1OCC(C)O1` (centres undefined), the median lethal dose (LD50) is 890 mg/kg. Consider `O=C1CC(=O)N(c2ccccc2)N1c1ccccc1`, for which the 50% lethal dose (LD50) is 1000 mg/kg.

For `C(=Nc1ccccc1)Nc1ccccc1`, the LD50 is 1900 mg/kg. Take `CCN1CCOCC1`: the LD50 is 1780 mg/kg.

Take `Nc1cc(S(=O)(=O)O)c2cccc(S(=O)(=O)O)c2c1`: the 50% lethal dose (LD50) was 11400 mg/kg. In the case of `Nc1c(Cl)c(Cl)c2[nH]c(C(F)(F)F)nc2c1Cl`, the LD50 is 23 mg/kg.

In the case of `CCCCOCCOC(=O)COc1cc(Cl)c(Cl)cc1Cl`, the 50% lethal dose (LD50) is 500 mg/kg.

With `Cc1ncc(CO)c(CN)c1O`, the LD50 is 7500 mg/kg. As to `CCCCCCOC(C)=O`, the LD50 was 42000 mg/kg. Consider `CC(C)(C)c1cc(CCC(=O)O)ccc1O`, for which the LD50 is 1000 mg/kg. With `CC=C(C(=O)NC(N)=O)C(C)C`, the median lethal dose (LD50) is 9000 mg/kg. `N#C[C@H]1O[C@@H]1C#N`: the median lethal dose (LD50) is 250 mg/kg. Regarding `O=C(O)Cn1c(=O)sc2cccc(Cl)c21`, the LD50 was 3000 mg/kg. For the compound `Cc1cc(OCC(=O)N[C@@H]2C(=O)N3[C@@H]2SC(C)(C)[C@@H]3C(=O)O)ccc1Cl`, the median lethal dose (LD50) was 4000 mg/kg.

`CCCC(C)(Oc1ccc(Cc2ccc(Cl)cc2)cc1)C(=O)OCc1cccnc1` (centres undefined): the LD50 is 10000 mg/kg.

As to `O=C(O)C1=CC(=CC=[N+]2C(C(=O)O)=Cc3cc(O)c(O)cc32)CC(C(=O)[O-])N1` (centres undefined), the median lethal dose (LD50) is 3140 mg/kg. On to `CNC(=O)Oc1ccccc1C1SCCS1`, for which the LD50 was 90 mg/kg. As for `Clc1cc(Cl)cc(C2(CC(Cl)(Cl)Cl)CO2)c1` (centres undefined), the median lethal dose (LD50) was 1500 mg/kg. Take `OCCN(CCO)c1nc(-c2ccccc2)c(-c2ccccc2)o1`: the LD50 is 11400 mg/kg. Turning to `CC(=O)[C@]1(O)Cc2c(O)c3c(c(O)c2[C@@H](O[C@H]2C[C@H](N)[C@H](O)[C@H](C)O2)C1)C(=O)c1ccccc1C3=O`, the LD50 was 5.43 mg/kg. Turning to `O=c1oc2cc(Cl)ccc2n1CCl`, the LD50 was 2350 mg/kg.

Regarding `NNc1nnc(NN)c2ccccc12`, the 50% lethal dose (LD50) was 350 mg/kg and 400 mg/kg. Take `Nc1ccc(OC(F)(F)C(F)F)c(N)c1`: the median lethal dose (LD50) is 1070 mg/kg. Turning to `COc1ccc(N)c(OC)c1`, the LD50 is 464 mg/kg.

In the case of `CC(C)(C)CC(C)(C)c1ccc(OCCOS(=O)(=O)O)cc1`, the LD50 was 27000 mg/kg. For `CC(N)C1CCC(c2ccccc2)CC1` (centres undefined), the 50% lethal dose (LD50) was 690 mg/kg. Consider `C1C2OC2C2C1C1CC2C2OC12` (centres undefined), for which the LD50 was 210 mg/kg.

Regarding `O=C1CC(c2cccc(Br)c2)C(=O)N1` (centres undefined), the LD50 is 1750 mg/kg. For the compound `Cc1c(Cl)ccc2[nH]c(C(F)(F)F)nc12`, the median lethal dose (LD50) was 22 mg/kg.
